Results taken from patent publication US11000518B2, “Use of combination of VEGFR inhibitor and PARP inhibitor in preparation of medicament for treating gastric cancer” (Jiangsu Hengrui Medicine Co., Ltd., priority 2016, dated 2021).
Where a name gives a salt, the structure may show the parent alone.

Experiments:
[1] = system: human gastric cancer PDX model STO #069; assay: Efficacy on subcutaneous implantation tumor of human gastric cancer PDX model STO #069 tumor-bearing nude mice; type: in vivo, BALB/c nude mice
Procedure: Efficacy of the Composition of the Present Invention on the Subcutaneous Implantation Tumor of Human Gastric Cancer PDX Model STO #069 Tumor-Bearing Nude Mice
Test animals: BALB/c nude mice, 6-7 weeks old, female, purchased from Beijing Vital River Laboratory Animal Technology Co., Ltd., with laboratory animals use license No.: SCXK (Shanghai) 2015-0022 and animal certificate No.: 11400700166108, feeding condition: SPF grade.
Control group: solvent group.
Compound A: compound A (100 mg) was weighed, added with 0.5% carboxymethylcellulose solution (10 mL), vortex-mixed or ultrasonic-mixed until the solution was clear, and stored at 4° C., and the dose volume was 5 mL/kg;
Compound B: compound B (540 mg) was weighed and dissolved in purified water (31 mL), then added with 0.2% Tween 80 (0.18 mL) and 10% PEG 400 (9.0 mL), vortex-mixed until the solution was clear, followed by adding purified water to a solution volume of 90 mL and storing at 4° C., and the dose volume was 5 mL/kg;
Cisplatin: cisplatin (3 mg) was weighed and dissolved in normal saline (6.0 mL), the concentration of the solution was 0.5 mg/mL, and the solution was prepared to a total of 6.0 mL, stored at 4° C., and filtrated with a 0.22 μm Millipore Millex® membrane before each use;
Paclitaxel: paclitaxel (6 mg/mL, 1.5 mL) was formulated into a solution (1.5 mg/mL) with normal saline (6.0 mL) and stored at 4° C., which was freshly formulated before each use.
After the tumor grew to 600-700 mm^3, it was passaged in the nude mice, which were defined as passage 0 (P0); after implantation of tumor passage 0 (P0), the mice were defined as passage 1 (P1); the passage was thus defined according to the order continuously implanted in nude mice; the next passage generated from FP5 was defined as FP6, and so on; and the FP6 tumor tissue was used for this study.
(1) Tumor implantation: the STO #069 FP6 tumor tissue (which was pathologically diagnosed as gastric poorly differentiated adenocarcinoma) was cut into small pieces (˜30 mm^3), and implanted subcutaneously into the right side of the nude mice. After the mean tumor size was close to 150-250 mm^3, the mice were grouped and treated, a total of 7 groups, each group of 6 tumor-bearing mice.
(2) Observation and recording: the tumor volume was measured 2-3 times per week, the mice were weighed, and the data were recorded.
The tumor volume was measured twice a week with a caliper and measured in two dimensions, the unit is mm^3;
V=½×a×b^2, wherein a and b represented length and width, respectively.
T/C (%)=(T−T0)/(C−C0)×100%, wherein T and C represented the tumor volumes of the administration group and the solvent group at the end of the experiment, respectively; and T0 and C0 represented the tumor volumes of the administration group and the solvent group at the start of the experiment, respectively.
The endpoint of the experiment: The endpoint of the efficacy study was set to 21 days. If the tumor volume>2000 mm^3, or if a nude mouse lost more than 20% of its weight or was very ill and cannot get enough food or water, the nude mouse would be removed from the experimental group and euthanized.

[2] = system: advanced prostate cancer patients with DNA repair gene mutations; conditions: phase II clinical trial; cited from earlier work
[3] = D 21, compound A 50 mg/kg PO QD × 21, compound B 30 mg/kg PO BID × 21, cisplatin 5 mg/kg IP QW × 3, paclitaxel 15 mg/kg IP QW × 3

SMILES | Partial regression ([1]; 6 animals per group, same doses as TGI column) | Mean tumor volume (mm^3) (Mean ± SEM) D 0 ([1]; D 0 = first administration time (baseline), STO#069 nude mice, n = 6) | % T/C D 21 [1, 3] [%] | % tumor growth inhibition (TGI) D 21 [1, 3] [%] | Mean tumor volume (mm^3) (Mean ± SEM) D 21 [1, 3] | tumor inhibition rate ([1]; Day 21 of administration, compound A 50 mg/kg QD×21, compound B 30 mg/kg BID×21, cisplatin 5 mg/kg QW×3, paclitaxel 15 mg/kg QW×3) [%] | response [2] [%]
N#CC1(c2ccc(NC(=O)c3cccnc3NCc3ccncc3)cc2)CCCC1 [Compound A, Apatinib mesylate] | 0 | 185.4 ± 17.0 | 44.68 | 55.32 | 465.9 ± 17.0 | 55.32 | –
O=C(c1cc(Cc2n[nH]c(=O)c3ccccc23)ccc1F)N1CCN(C(=O)C2CC2)CC1 [Olaparib] | – | – | – | – | – | – | 88
